{"source": "patent US20080090892A1", "about": "“AMORPHOUS ASENAPINE AND PROCESSES FOR PREPARING SAME” (N.V. Organon, priority 2006, published 2008)", "experiment": "Relative humidity (RH) study, visual assessment in double-vial relative humidity chambers", "type": "physicochemical", "conditions": "approximately 36 hours", "description": "Relative Humidity (RH): An RH study was conducted to determine appropriate handling conditions for amorphous asenapine maleate. Samples of Batch A1 were placed in double-vial relative humidity chambers at 3.4% RH, 8.2% RH and 22.5% RH and were visually assessed after approximately 36 hours.", "note": "Structures can show the parent of a compound that is named as a salt.", "data": [{"smiles": "CN1C[C@@H]2c3ccccc3Oc3ccc(Cl)cc3[C@H]2C1", "note": "(relative stereo) [Batch A1, trans-5-chloro-2-methyl-2,3,3a,12b-tetrahydro-1H-dibenz[2,3:6,7]oxepino[4,5-c]pyrrole maleate]", "values": [{"measurement": "physical state after storage at controlled relative humidity (visual assessment)", "setting": "3.4% RH", "result": "remained solid"}, {"measurement": "physical state after storage at controlled relative humidity (visual assessment)", "setting": "8.2% RH", "result": "remained solid"}, {"measurement": "physical state after storage at controlled relative humidity (visual assessment)", "setting": "22.5% RH", "result": "deliquesced"}]}]}
